Reference: paper PMC9611540, “PEGylation of the antimicrobial peptide LyeTx I-b maintains structure-related biological properties and improves selectivity” (Frontiers in Molecular Biosciences, 2022)

Assays:
[1] = test system: Escherichia coli (ATCC 25922); assay type: cell-based; details: for MIC: E. coli ATCC 25922, microdilution plates, Mueller Hinton, 10^4 bacterial cells per well, peptides 32 to 0.25 μM, triplicate
Text: (§1) Escherichia coli (ATCC 25922), Staphylococcus aureus (ATCC 33591), and three multidrug-resistant isolates (two E. coli and one S. aureus) were provided by Laboratory of Oral Microbiology and Anaerobes, Department of Microbiology, Institute of Biological Sciences, Federal University of Minas Gerais. Renal epithelial cells of the African green monkey (Cercopithecus aethiops) (VERO, ATCC CCL-81) were provided by the Federal University of Sao Joao del-Rei (UFSJ).
(§2) In order to determine MIC values of the PEGylated and the non-PEGylated peptides, bacterial isolates were cultured in TSA. After incubation for 24 h, at 37°C, under aerobic conditions, colonies were collected using an inoculation loop and transferred to saline solution (0.9% m/v NaCl). The inoculums were checked in a spectrophotometer at 600 nm; colonies were added until an absorbance corresponding to 1.5 × 10^8 cells · mL^−1 was obtained. Then, a 150-fold dilution was performed to achieve a concentration of 1 × 10^6 cells · mL^−1. MIC assays were performed in microdilution plates employing inoculums of 10^4 bacterial cells per well and concentrations of peptides ranging from 32 to 0.25 μM. All analyses were performed in triplicate. Positive (MH + bacterial inoculum) and negative (MH and MH + saline solution) controls were included in each batch of tests.
(§3) The specific values of molar peptide concentration used in this work were estimated according to the method described by [Schmid (2001)].

[2] = test system: Staphylococcus aureus (ATCC 33591); assay type: cell-based; details: for MIC: S. aureus ATCC 33591, microdilution plates, Mueller Hinton, 10^4 bacterial cells per well, peptides 32 to 0.25 μM, triplicate
Text: as §1, §2, §3

[3] = test system: E.coli ISOL_10 (multidrug-resistant isolate); assay type: cell-based, Escherichia coli; details: microdilution plates, Mueller Hinton, 10^4 bacterial cells per well, peptides 32 to 0.25 μM, triplicate
Text: as §1, §2, §3

[4] = test system: E.coli ISOL_11 (multidrug-resistant isolate); assay type: cell-based, Escherichia coli; details: for MIC: E. coli ISOL_11, microdilution plates, Mueller Hinton, 10^4 bacterial cells per well, peptides 32 to 0.25 μM, triplicate
Text: as §1, §2, §3

[5] = test system: S. aureus ISOL_1 (multidrug-resistant isolate); assay type: cell-based, Staphylococcus aureus; details: for MIC: S. aureus ISOL_1, microdilution plates, Mueller Hinton, 10^4 bacterial cells per well, peptides 32 to 0.25 μM, triplicate
Text: as §1, §2, §3

proteinase K = proteinase K (Parengyodontium album, UniProt P06873); test: Proteolytic degradation assay, RP-HPLC; assay type: in vitro ADME; details: 50 μM peptide, enzyme:substrate 1:50 (w/w) or 1:25 (w/w), 10 mM phosphate buffer pH 8.0, 37°C, up to 24 h, RP-HPLC C18, UV 215 nm
Sequence of proteinase K (P06873 106-384): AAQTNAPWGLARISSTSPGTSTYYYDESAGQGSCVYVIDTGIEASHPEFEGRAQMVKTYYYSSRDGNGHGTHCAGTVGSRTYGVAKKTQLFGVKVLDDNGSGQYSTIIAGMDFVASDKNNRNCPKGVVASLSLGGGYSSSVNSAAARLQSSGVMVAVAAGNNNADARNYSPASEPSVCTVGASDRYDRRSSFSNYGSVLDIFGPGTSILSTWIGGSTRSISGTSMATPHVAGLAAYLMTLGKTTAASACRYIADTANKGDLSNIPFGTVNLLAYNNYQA
Method: (§4) The enzymes used in the experiments were trypsin and proteinase K. Enzyme solutions were prepared a few minutes before the experiments and contained 1.0 µM enzyme in 10 mM phosphate buffer at pH 8.0 for activation. Comparative proteolysis experiments between LyeTx I-b and LyeTx I-bPEG were performed by digesting the peptide solution (50 μM) with the enzyme solutions incubated at 37°C at an enzyme:substrate ratio of 1:50 (w/w) for trypsin and 1:50 (w/w) for proteinase K for 24 h. […] After inactivation, aliquots of 50 µL were injected into a Varian™ chromatograph (Varian, Inc. Corporate Headquarters, Palo Alto, CA, United States), model Pro Star 315, with ultraviolet detector, model Pro Star 335, using a Vydac™ 218 TP C18 (250 × 4.6 mm) reverse phase column. Chromatographic analyses were performed using a gradient of deionized water containing 0.1% TFA and acetonitrile containing 0.08% TFA. Samples were detected at 215 nm under a flow of 0.80 mL · min^−1 for 45 min.

trypsin = test: Proteolytic degradation assay, RP-HPLC; assay type: in vitro ADME; details: 50 μM peptide, enzyme:substrate 1:50 (w/w), 10 mM phosphate buffer pH 8.0, 37°C, up to 24 h, RP-HPLC C18, UV 215 nm
Method: as §4

Row | Substance | MIC [1] [µM] | MIC [2] [µM] | MIC [3] [µM] | MIC [4] [µM] | MIC [5] [µM] | Selectivity index (SI) ([1]; E. coli ATCC 25922 versus VERO cells (CC50, MTT, 24 h)) | Selectivity index (SI) ([2]; S. aureus ATCC 33591 versus VERO cells (CC50, MTT, 24 h)) | Selectivity index (SI) ([4]; E. coli ISOL_11 versus VERO cells (CC50, MTT, 24 h)) | Selectivity index (SI) ([5]; S. aureus ISOL_1 versus VERO cells (CC50, MTT, 24 h)) | Proteolytic degradation by proteinase K (proteinase K) | Proteolytic degradation by trypsin (trypsin)
1 | Ac-IWLTALKFLGKNLGKLAKQQCAKL-NH2 [LyeTx I-bcys] | 1.0 | 2.0 | 1.0 | 1.0 | 2.0 | – | – | – | – | – | –
2 | Ac-IWLTALKFLGKNLGKLAKQQLAKL-NH2 [LyeTx I-b] | 1.0 | 2.0 | 1.0 | 1.0 | 2.0 | 0.96 | 0.48 | 0.96 | 0.48 | almost completely degraded after 6 h | almost completely degraded after 6 h
